{
  "source": "paper PMC5005338",
  "about": "“Escherichia coli Type III Secretion System 2 ATPase EivC Is Involved in the Motility and Virulence of Avian Pathogenic Escherichia coli” (Frontiers in Microbiology, 2016)",
  "target": "EivC (His-EivC) (Escherichia coli, UniProt A0A160EFI3)",
  "sequence (A0A160EFI3 entry or part of it)": "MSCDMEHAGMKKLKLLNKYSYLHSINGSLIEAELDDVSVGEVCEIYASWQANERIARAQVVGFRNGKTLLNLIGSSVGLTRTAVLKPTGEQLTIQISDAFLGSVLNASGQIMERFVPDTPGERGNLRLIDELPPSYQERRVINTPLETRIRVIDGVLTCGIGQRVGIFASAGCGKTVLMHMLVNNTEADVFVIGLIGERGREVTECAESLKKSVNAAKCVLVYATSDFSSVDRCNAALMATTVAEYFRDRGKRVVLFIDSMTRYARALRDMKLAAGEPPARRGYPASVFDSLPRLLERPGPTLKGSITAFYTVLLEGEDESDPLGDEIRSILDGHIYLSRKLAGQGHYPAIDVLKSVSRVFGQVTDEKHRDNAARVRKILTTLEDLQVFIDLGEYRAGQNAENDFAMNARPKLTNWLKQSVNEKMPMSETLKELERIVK",
  "settings": "30 min assay; His-tagged protein",
  "data": [
    {"smiles": "Nc1ncnc2c1ncn2[C@@H]1O[C@H](COP(=O)(O)OP(=O)(O)OP(=O)(O)O)[C@@H](O)[C@H]1O", "note": "[ATP]", "values": [
      {"measurement": "phosphate release, malachite green ATPase assay kit", "result": "a His-EivC fusion protein was purified and tested for its ability to hydrolyze ATP"}
    ]}
  ]
}
